Experimental data as given in patent publication US7629364B2, “Compounds that abrogate DNA-damage-induced cell cycle G2 checkpoint and/or augment anti-cancer activity of DNA-damaging treatments” (Canbas Co., Ltd., priority 2002, dated 2009).

Experiments:
Jurkat cells = test: G2 checkpoint abrogation in bleomycin-treated Jurkat cells (flow cytometry of DNA content); assay type: cell-based, human; details: Jurkat cells, bleomycin 40 μg/ml plus compound 0.2-50 μg/ml, 24 hrs
Procedure: (§1) Cell culture. A human T-cell leukemia-derived cell line, Jurkat, was cultured in RPMI 1640 media (Sigma) supplemented with 10% fetal calf serum (IBL: Immuno-Biological Laboratories, Gunma, Japan) at 37° C./5% CO2. A human colon cancer-derived cell line, HCT116, was cultured in McCoy's 5A Medium Modified (Gibco BRL) and supplemented with 10% fetal calf serum at 37° C./5% CO2. Normal human peripheral blood lymphocytes were separated by Ficoll-Paque® (Pharmacia) and cultured in the presence of 0.1 μg/ml PHA and 1 μg/ml IL-2.
(§2) Cell-cycle analysis. […] Briefly, two million cells were resuspended and incubated in 300 μl Krishan's solution (0.1% Sodium citrate, 50 μg/ml PI, 20 μg/ml RNase A and 0.5% NP-40) for 1 hr at 4° C. and analyzed by flow cytometry using a FACScan™ flow cytometer (Beckton Dickinson, Mountain View, Calif.) with the CELLQuest™ program (Beckton Dickinson).
DNA of treated Jurkat cells was stained with propidium iodine, and the cell cycle status of each cell was assessed by flow cytometry.
CBDC compounds 004, 402, 403, 404, 405, 406, 407, 408, 409, 410, and 411 were tested. Cells were harvested, DNA was stained with propidium iodine, and the percentage of cells in G2/M phase (% G2/M) was determined by flow cytometry.
Activated normal T cells and leukemic T cells (Jurkat cells) were treated with agents to induce accumulation of cells at G2 or M phase, and the effect of CBDC402 on progression of cells through cell cycle checkpoints was measured. After treatments, cells were harvested, DNA was stained, and the cell cycle stage for each cell was determined by flow cytometry as described above. […] In another experiment, activated normal T cells received no treatment (control) or were treated with colchicine or a combination of […] and colchicine.

[1] = test system: HCT116 human colon carcinoma cells; test: G2 checkpoint induced by various anti-cancer agents in HCT116 cells (flow cytometry); assay type: cell-based; details: co-incubation with CBDC004 2, 10 or 50 μM, 24 hrs
Procedure: as §1, §2
DNA was stained with propidium iodine, and the cell cycle status of each cell was assessed by flow cytometry.

COc1ccc(OC(=O)c2ccc(Cl)cc2)cc1 [CBDC004, 4-Chloro-benzoic acid 4-methoxy-phenyl ester]
abrogation of bleomycin-induced accumulation of G2/M cells (% G2/M) (Jurkat cells): abrogated the G2 cell cycle checkpoint in bleomycin-treated Jurkat cells in a dose-dependent manner
effect on G2/M accumulation induced by bleomycin, adriamycin, camptothecin or cisplatin [1]: reduced the number of cells at G2/M
